# Where a name gives a salt, the structure may show the parent alone.
# Legend:
# [1] = Acute intravenous toxicity in mice, products of Examples 10 to 13 (LD50); conditions: mouse, in vivo, i.v., group of male and female mice
# Text: (a) determined on a group of male and female mice,
# (b) determined on a group consisting solely of female mice.
# adrenergic receptors [2] = assay: Inhibition/reversal of tension effects of adrenalin, intravenous (products of Examples 11 to 13); format: in vivo; conditions: i.v.
# Method: the doses of CRL 40,150 from 0.5 to 4 mg/kg being administered successively.
# dogs [3] = assay: Hypotensive effect in dogs anaesthetised with Nembutal; format: in vivo
# Text: This hypotension manifests itself especially in a decrease in the differential pressure, the lowering of the diastolic pressure being greater than that of the systolic pressure.
# dogs [4] = assay: Intraduodenal administration to dogs anaesthetised with Nembutal (product of Example 11), Experiments A to D; format: in vivo
# Method: Complementary experiments carried out on anaesthetised dogs have been given below for the product of Example 11 administered intraduodenally (ID).
# (§1) The product was investigated by intraduodenal administration to dogs anaesthetised with Nembutal, in four experiments, A B C and D.
# The arterial pressure is not altered. The pulse rate increases by at most 20% after 15 minutes and then decreases slowly (+ 14% after 30 minutes).
# After 1 hour, the femoral flow rate has still been increased by 100% (from 36 to 72 ml/minute).
# The α-receptors of the animal are already blocked. […] The vertebral flow rate is 20 ml/minute.
# 15 hr. […] 15 hr. […] 16 hr. […] 16 hr. 23 min. Propanolol: 0.3 mg/kg administered intravenously. […] The arterial pressure increases by approximately 10%. […] The pulse rate increases by 20 to 33%. […] The femoral flow rate is increased by only 25%.
# adrenergic receptors [5] = assay: Tension effects of adrenalin after intraduodenal product of Example 11; format: in vivo, dogs; conditions: Experiment A
# Text: as §1
# adrenalin = assay: Effect on the amines and reflexes: adrenalin; conditions: in vivo
# Text: (§2) In Table III below, the effects of the products on the amines and the reflexes have been summarised.
# acetylcholine = assay: Effect on the amines and reflexes: acetylcholine; conditions: in vivo
# Text: as §2
# peripheral vagus = assay: Effect on the amines and reflexes: stimulation of the peripheral vagus; conditions: in vivo
# Text: as §2
# central vagus = assay: Effect on the amines and reflexes: stimulation of the central vagus; conditions: in vivo
# Text: as §2
# [6] = tested on: reflex relating to occlusion of the carotids; assay: Effect on the amines and reflexes: occlusion of the carotids; conditions: in vivo
# Text: as §2
# [7] = Experiment A, 15 and 30 mg/kg ID
# [8] = Experiment B, second administration 30 mg/kg ID, after 1 hour
# [9] = Experiment B, second administration 30 mg/kg ID, after 2 hours
# [10] = Experiment B, third administration 30 mg/kg ID
# [11] = Experiment D, second 15 mg/kg ID
compound,measurement,setting,value
"COc1cc(OC)cc(OCCN2CCN(CC3COc4ccccc4O3)CC2)c1 (centres unmarked) [Example 11, 1-[2-(1,4-Benzodioxanyl)-methyl]-4-[2-(3,5-dimethoxyphenoxy)-ethyl]-piperazine dihydrochloride]",LD50,[1],60 mg/kg
same,dose from which tension effects of adrenalin are inhibited and then reversed,adrenergic receptors [2],≥ 0.37 mg/kg
same,hypotension,dogs [3],40%
same,arterial pressure,dogs [4]; [7],not altered
same,effect on the femoral flow rate,dogs [4]; [7],no effect
same,effect on the vertebral flow rate,dogs [4]; [7],no effect
same,increase in pulse rate,"dogs [4]; Experiment A, after 15 minutes",at most 20%
same,increase in pulse rate,"dogs [4]; Experiment A, after 30 minutes",14%
same,increase in femoral flow rate,"dogs [4]; Experiment B, 15 mg/kg ID, 5 minutes",134%
same,increase in femoral flow rate,"dogs [4]; Experiment B, 15 mg/kg ID, 15 minutes",194%
same,increase in femoral flow rate,"dogs [4]; Experiment B, 15 mg/kg ID, 1 hour",100%
same,femoral flow rate,"dogs [4]; Experiment B, 15 mg/kg ID, 1 hour, from 36",72 mL/min
same,increase in differential arterial pressure,"dogs [4]; Experiment B, ID",30%
same,increase in the pulse rate,"dogs [4]; Experiment B, ID",≤ 30%
same,decrease in average arterial pressure,"dogs [4]; Experiment B, ID, at most",≤ 18%
same,average arterial pressure,"dogs [4]; Experiment B, ID, lowest, from 165",135 mm Hg
same,femoral flow rate,dogs [4]; [8],104 mL/min
same,increase in femoral flow rate,dogs [4]; [8],184%
same,femoral flow rate,dogs [4]; [9],92 mL/min
same,increase in femoral flow rate,dogs [4]; [9],156%
same,change in femoral flow rate,"dogs [4]; Experiment B, second administration 30 mg/kg ID, first 45 minutes",does not change the flow rate further
same,femoral flow rate,dogs [4]; [10],108 mL/min
same,increase in femoral flow rate,dogs [4]; [10],200%
same,effect on the femoral flow rate,"dogs [4]; Experiment C, 15 mg/kg ID",zero
same,increase in vertebral flow rate,"dogs [4]; Experiment C, 15 mg/kg ID, after 60 minutes",35%
same,vertebral flow rate,"dogs [4]; Experiment C, 15 mg/kg ID, after 60 minutes, from 20",27 mL/min
same,average pressure,"dogs [4]; Experiment D, 15 mg/kg ID",remaining constant
same,differential pressure,"dogs [4]; Experiment D, 15 mg/kg ID",large increase in the differential pressure
same,increase in arterial pressure,"dogs [4]; Experiment D, 15 mg/kg ID",approximately 10%
same,increase in femoral flow rate,"dogs [4]; Experiment D, 15 mg/kg ID, 10 minutes",170%
same,femoral flow rate,"dogs [4]; Experiment D, 15 mg/kg ID, 10 minutes, from 48",130 mL/min
same,increase in femoral flow rate,"dogs [4]; Experiment D, 15 mg/kg ID, 30 minutes",100%
same,increase in femoral flow rate,"dogs [4]; Experiment D, 15 mg/kg ID, 75 minutes",50%
same,increase in vertebral flow rate,"dogs [4]; Experiment D, 15 mg/kg ID, first administration, at most",≤ 16%
same,increase in femoral flow rate,dogs [4]; [11],25%
same,vertebral flow rate,dogs [4]; [11],70 mL/min
same,increase in vertebral flow rate,"dogs [4]; Experiment D, second 15 mg/kg ID, after 15 minutes",94%
same,tension effects of adrenalin,adrenergic receptors [5]; 5 minutes after the first dose (15 mg/kg ID),reversed
same,passage through the intestinal barrier,adrenergic receptors [5]; ID,passed through the intestinal barrier
same,Effect on the amines and reflexes: adrenalin,adrenalin,reversal
same,Effect on the amines and reflexes: acetylcholine,acetylcholine,no change
same,Effect on the amines and reflexes: stimulation of the peripheral vagus,peripheral vagus,not changed
same,Effect on the amines and reflexes: stimulation of the central vagus,central vagus,not changed
same,Effect on the amines and reflexes: reflex relating to occlusion of the carotids,[6],reduced

# — US3959283A, “Amino-derivatives of 1,4-benzodioxan” (Laboratoire L. Lafon, priority 1974, dated 1976)
